According to US20060166867A1, “Novel conjugates of polysaccharides and uses thereof” (priority 2003, published 2006):
≈ marks a conversion by molar mass, not a printed value. Where “and” joins values, the source holds several entries; their conditions need not be identical. Equal entries are not always repeated. Where two headings read alike, the source gives them in different places.

Tests used:
[1] = system: Enterococcus faecium (clinical isolate); assay: MIC, broth microdilution; assay type: cell-based; conditions: Gram positive clinical isolate; for MIC: read-out: Minimum Inhibitory Concentration
S. epidermidis B32954 = assay: MIC, broth microdilution; assay type: cell-based, Staphylococcus epidermidis; conditions: Staphylococcus epidermidis, B32954; Gram positive clinical isolate; read-out: Minimum Inhibitory Concentration
[2] = system: Enterococcus faecalis B84939-vancomycin^r; assay: MIC, broth microdilution; assay type: cell-based; conditions: Enterococcus faecalis; Gram positive clinical isolate; read-out: Minimum Inhibitory Concentration
P. aeruginosa R17093 = assay: MIC, broth microdilution; assay type: cell-based, Pseudomonas aeruginosa; conditions: Gram negative clinical isolate, read-out: Minimum Inhibitory Concentration
[3] = system: Staphylococcus aureus ATCC 24213; assay: microbe, parasite or virus in culture; conditions: ATCC24213, read-out: Minimum Inhibitory Concentration
S. aureus MSSA = assay: microbe, parasite or virus in culture; conditions: Staphylococcus aureus, read-out: Minimum Inhibitory Concentration
[4] = system: Klebsiella pneumoniae ATCC 13883; assay: microbe, parasite or virus in culture; conditions: ATCC13883, read-out: Minimum Inhibitory Concentration
[5] = system: Proteus mirabilis ATCC 7002; assay: microbe, parasite or virus in culture; conditions: ATCC7002, read-out: Minimum Inhibitory Concentration
[6] = system: Moraxella catarrhalis ATCC 25238 (Branhamella); assay: microbe, parasite or virus in culture; conditions: ATCC25238, read-out: Minimum Inhibitory Concentration
E. Coli-ESBL positive = assay: microbe, parasite or virus in culture; conditions: Escherichia coli, read-out: Minimum Inhibitory Concentration
[7] = system: K. pneumoniae-ESBL positive; assay: microbe, parasite or virus in culture; conditions: Klebsiella pneumoniae, read-out: Minimum Inhibitory Concentration
Serratia marcescens [8] = assay: microbe, parasite or virus in culture; conditions: read-out: Minimum Inhibitory Concentration
Enterobacter cloacae [9] = assay: microbe, parasite or virus in culture; conditions: read-out: Minimum Inhibitory Concentration
[10] = system: P. aeruginosa-gentamicin^s, meropenem^s; assay: microbe, parasite or virus in culture; conditions: Pseudomonas aeruginosa, read-out: Minimum Inhibitory Concentration
[11] = system: P. aeruginosa-gentamicin^r, meropenem^r; assay: microbe, parasite or virus in culture; conditions: Pseudomonas aeruginosa, read-out: Minimum Inhibitory Concentration
E. coli U23773^r = assay: microbe, parasite or virus in culture; conditions: Escherichia coli, read-out: Minimum Inhibitory Concentration
[12] = system: Enterobacter cloacae W25161; assay: microbe, parasite or virus in culture; conditions: W25161, read-out: Minimum Inhibitory Concentration
A. baumannii R16998 = assay: microbe, parasite or virus in culture; conditions: Acinetobacter baumannii, R16998, read-out: Minimum Inhibitory Concentration
[13] = system: Streptococcus bovis ATCC 9809; assay: MIC, broth microdilution; assay type: cell-based; conditions: Gram positive reference strain
Protocol: Minimal Inhibition Concentration (MIC) measurements: The Minimal Inhibitory Concentration (MIC) was generally determined by the Broth Microdilution method (based on the protocol described in Clinical and Laboratory Standard Institute (CLSI) NCCLS (2003) M7-A6), as follows:
A stock solution of each of the tested compounds was prepared by diluting the compound to a 2,560 μg/ml concentration with an appropriate solvent. The stock solution was then serially 2-fold diluted in 96-well microdilution trays using Cation-Adjusted Mueller-Hinton Broth (CAMHB) until reaching the desired range of concentrations, whereas each well contained double the final working concentration. Each row further had one growth control well (medium+inoculum only), and one sterility control well (medium+tested compound). Plates were stored at −70° C. until used.
The tested microorganisms were used as fresh overnight cultures on blood agar (for gram-positive organisms) or MacConkey agar (for gram-negatives). A standardized inoculum suspension was prepared by the direct colony suspension method, using sterile saline (equivalent to a 0.5 McFarland standard).
Thus, 50 μl of the inoculum suspension were added to each tested well (except for the sterility control well), and […] was performed during 18-24 hours (depending on the tested microorganism or compound) at 35° C.

[14] = system: Staphylococcus aureus ATCC 24213; conditions: Gram positive reference strain
[15] = system: Enterococcus faecalis ATCC 29212; conditions: Gram positive reference strain
S. aureus MRSA = conditions: Gram positive clinical isolate
S. epidermidis MSSE = conditions: Gram positive clinical isolate
S. epidermidis MRSE = conditions: Gram positive clinical isolate
[16] = system: Enterococcus faecalis (clinical isolate); conditions: Gram positive clinical isolate
[17] = system: Escherichia coli ATCC 25922; conditions: Gram negative reference strain
[18] = system: Proteus mirabilis ATCC 7002; conditions: Gram negative reference strain
[19] = system: K. pneumoniae-ESBL positive; conditions: Gram negative clinical isolate
Serratia marcescens [20] = conditions: Gram negative clinical isolate
Enterobacter cloacae [21] = conditions: Gram negative clinical isolate
[22] = system: P. aeruginosa-gentamicin^r, meropenem^r; conditions: Gram negative clinical isolate

Compound: NCC1OC(OC2C(CO)OC(OC3C(O)C(N)CC(N)C3OC3OC(CN)C(O)C(O)C3N)C2O)C(N)C(O)C1O (centres unmarked) [Neomycin]
- MIC ([1]; Enterococcus faecium): 256 µg/mL and 282 µM
- MIC (S. epidermidis B32954): 0.5 µg/mL and 0.55 µM
- MIC [2]: 64 µg/mL and 70.4 µM
- MIC (P. aeruginosa R17093): 211.22 µM (≈ 130 µg/mL)
- MIC (P. aeruginosa R17093; Pseudomonas aeruginosa, R17093): 211 µM and 192 µg/mL
- MIC [3]: 1.5 µg/mL and 1.65 µM
- MIC (S. aureus MSSA): 1 µg/mL and 1.1 µM
- MIC [4]: 0.7 µg/mL and 0.77 µM
- MIC [5]: 1.5 µg/mL and 1.65 µM
- MIC [6]: 0.25 µg/mL and 0.28 µM
- MIC (E. Coli-ESBL positive): 4 µg/mL and 4.4 µM
- MIC [7]: 1.5 µg/mL and 1.65 µM
- MIC (Serratia marcescens [8]): 1 µg/mL and 1.1 µM
- MIC (Enterobacter cloacae [9]): 4 µg/mL and 4.4 µM
- MIC [10]: 16 µg/mL and 17.6 µM
- MIC [11]: 128 µg/mL and 141 µM
- MIC (E. coli U23773^r): 141 µM and 128 µg/mL
- MIC [12]: 3 µg/mL and 3.3 µM
- MIC (A. baumannii R16998): 32 µg/mL and 35.2 µM

Compound: CC(=O)N[C@H](CCCNC(=N)N)C(=O)N[C@H](CCCNC(=N)N)C(=O)N[C@H](CCCNC(=N)N)C(=O)N[C@H](CCCNC(=N)N)C(=O)N[C@H](CCCNC(=N)N)C(=O)N[C@H](CCCNC(=N)N)C(=O)N[C@H](CCCNC(=N)N)C(=O)N[C@H](CCCNC(=N)N)C(=O)N[C@H](CCCNC(=N)N)C(=O)O [Compound 12, D-Arg-9-mer-NHAc]
- Minimum Inhibitory Concentration [13]: 128.0 mg/L
- Minimum Inhibitory Concentration [14]: 128.0 mg/liter and 63.82 μM
- Minimum Inhibitory Concentration [15]: 64.0 mg/liter and 31.91 μM
- Minimum Inhibitory Concentration (S. aureus MRSA): > 128.0 mg/liter and 63.82 μM
- Minimum Inhibitory Concentration (S. epidermidis MSSE): 8.0 mg/liter and 3.99 μM
- Minimum Inhibitory Concentration (S. epidermidis MRSE): 96.0 mg/liter and 47.86 μM
- Minimum Inhibitory Concentration [16]: 128.0 mg/liter and 63.82 μM
- Minimum Inhibitory Concentration [17]: 128.0 mg/liter and 63.82 μM
- Minimum Inhibitory Concentration [18]: > 256.0 mg/liter and 127.64 μM
- Minimum Inhibitory Concentration [19]: 48.0 mg/liter and 23.93 μM
- Minimum Inhibitory Concentration (Serratia marcescens [20]): > 256.0 mg/liter and 127.64 μM
- Minimum Inhibitory Concentration (Enterobacter cloacae [21]): 128.0 mg/liter and 63.82 μM
- Minimum Inhibitory Concentration [22]: > 256.0 mg/liter and 127.64 μM

Compound: D-Arg-9-mer-neomycin [Compound 14]
- Minimum Inhibitory Concentration [13]: 24.0 mg/L
- Minimum Inhibitory Concentration [1]: 24.0 mg/L
- MIC [1]: 8.27 µM
- Minimum Inhibitory Concentration [14]: 32.0 mg/liter and 11.02 μM
- Minimum Inhibitory Concentration [15]: 128.0 mg/liter and 44.11 μM
- Minimum Inhibitory Concentration (S. aureus MRSA): 32.0 mg/liter and 11.02 μM
- Minimum Inhibitory Concentration (S. epidermidis MSSE): 0.52 µM
- Minimum Inhibitory Concentration (S. epidermidis MRSE): 8.0 mg/liter and 2.76 μM
- Minimum Inhibitory Concentration [16]: 64.0 mg/liter and 22.05 μM
- Minimum Inhibitory Concentration [17]: 32.0 mg/liter and 11.02 μM
- Minimum Inhibitory Concentration [18]: 64.0 mg/liter and 22.05 μM
- Minimum Inhibitory Concentration [19]: 32.0 mg/liter and 11.02 μM
- Minimum Inhibitory Concentration (Serratia marcescens [20]): 64.0 mg/liter and 22.05 μM
- Minimum Inhibitory Concentration (Enterobacter cloacae [21]): 64.0 mg/liter and 22.05 μM
- Minimum Inhibitory Concentration [22]: > 156.0 mg/liter and 53.76 μM
